Experimental data published in patent US12570671B2 (BRISTOL-MYERS SQUIBB COMPANY, priority 2020, dated 2026).

How the values were obtained:
Ikaros = Ikaros (Homo sapiens, UniProt Q13422+Q96SW2); assay: Helios Cellular Degradation Assay (Ikaros readout); assay type: cell-based; set-up: endogenous in cells; host or cells: Jurkat; conditions: Jurkat cells, 72 h incubation, Ikaros-Alexa488 antibody staining, flow cytometry; read-out: Ikaros Jurkat IC50
Experimental: (§1) Jurkat cells were plated at 80,000 cells/well in 40 μL RPMI+10% FBS in a 384 well cell culture plate prior to using acoustic dispensing technology for adding compound of interest. Cell cultures were incubated for 72 h at 37° C. and 5% C02. In order to facilitate analysis, cell cultures were spun down at 200 rpm for 5 min and the supernatant was discarded. After shaking the plate to dislodge the cell pellet, cells were resuspended in 50 μL of Fixation Buffer (eBioScience FoxP3 buffer set 00-5523-00) for 60 min at room temperature. After centrifuging and discarding the supernatant, cells were permeabilized with 50 μL of Permeabilization buffer (eBioScience FoxP3 buffer set 00-5523-00) for 10 min at room temperature. Following permeabilization, cells were spun down and the supernatant was replaced with 20 μL fluorescently labelled antibodies against Helios, Ikaros and Aiolos or corresponding Isotype controls in 1× Permeabilization buffer (Ikaros-Alexa488 [Biolegend, Cat #368408, 1:50], Helios-PE [CST, Cat #29360, 1:50], Aiolos-Alexa647 [Biolegend, Cat #371106Biolegend, 1:25]) and staining reactions were incubated for 1 h at room temperature; protected from light. Subsequently, 30 μL of 1× Permeabilization buffer was added prior to centrifuging the cells and discarding the supernatant. Stained cells were resuspended in 25 μL of flow cytometry staining buffer (PBS+0.2% BSA) and analyzed using an Intellicyt Ique Plus flow cytometer.

Helios = Helios (Homo sapiens, UniProt Q96SW2+Q9UKS7); assay: Helios Cellular Degradation Assay (Helios readout); assay type: cell-based; set-up: endogenous in cells; host or cells: Jurkat; conditions: Jurkat cells, 72 h incubation, Helios-PE antibody staining, flow cytometry; read-out: Helios Jurkat IC50
Experimental: as §1

Sequence of Ikaros (Q13422 whole entry): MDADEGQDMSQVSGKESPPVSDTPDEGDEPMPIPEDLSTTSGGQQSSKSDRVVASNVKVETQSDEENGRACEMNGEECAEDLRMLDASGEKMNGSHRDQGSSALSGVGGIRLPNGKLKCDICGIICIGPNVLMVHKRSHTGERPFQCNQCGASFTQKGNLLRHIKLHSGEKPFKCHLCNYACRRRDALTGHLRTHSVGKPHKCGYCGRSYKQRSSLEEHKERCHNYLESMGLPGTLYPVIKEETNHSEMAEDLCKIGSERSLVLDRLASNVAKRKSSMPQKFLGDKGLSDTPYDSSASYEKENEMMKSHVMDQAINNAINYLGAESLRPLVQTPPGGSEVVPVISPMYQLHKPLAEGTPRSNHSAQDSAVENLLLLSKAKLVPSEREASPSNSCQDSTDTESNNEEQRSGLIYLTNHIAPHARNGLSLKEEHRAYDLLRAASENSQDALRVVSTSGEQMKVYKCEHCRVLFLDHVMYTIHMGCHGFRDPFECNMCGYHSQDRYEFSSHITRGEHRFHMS
Sequence of Ikaros (Q96SW2 whole entry): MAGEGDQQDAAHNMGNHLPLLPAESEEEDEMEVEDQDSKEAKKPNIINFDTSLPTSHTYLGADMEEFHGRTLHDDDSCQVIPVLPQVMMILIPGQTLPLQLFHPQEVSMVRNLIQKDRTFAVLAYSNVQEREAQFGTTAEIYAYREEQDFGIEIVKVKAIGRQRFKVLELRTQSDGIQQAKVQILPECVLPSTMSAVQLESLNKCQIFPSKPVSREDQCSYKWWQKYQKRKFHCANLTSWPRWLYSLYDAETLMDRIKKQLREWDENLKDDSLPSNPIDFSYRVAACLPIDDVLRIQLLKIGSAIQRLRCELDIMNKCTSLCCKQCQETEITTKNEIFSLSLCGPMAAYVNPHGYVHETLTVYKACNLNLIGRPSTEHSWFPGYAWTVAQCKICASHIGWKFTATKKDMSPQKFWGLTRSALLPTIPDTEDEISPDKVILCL
Sequence of Ikaros (Q16531 whole entry partner): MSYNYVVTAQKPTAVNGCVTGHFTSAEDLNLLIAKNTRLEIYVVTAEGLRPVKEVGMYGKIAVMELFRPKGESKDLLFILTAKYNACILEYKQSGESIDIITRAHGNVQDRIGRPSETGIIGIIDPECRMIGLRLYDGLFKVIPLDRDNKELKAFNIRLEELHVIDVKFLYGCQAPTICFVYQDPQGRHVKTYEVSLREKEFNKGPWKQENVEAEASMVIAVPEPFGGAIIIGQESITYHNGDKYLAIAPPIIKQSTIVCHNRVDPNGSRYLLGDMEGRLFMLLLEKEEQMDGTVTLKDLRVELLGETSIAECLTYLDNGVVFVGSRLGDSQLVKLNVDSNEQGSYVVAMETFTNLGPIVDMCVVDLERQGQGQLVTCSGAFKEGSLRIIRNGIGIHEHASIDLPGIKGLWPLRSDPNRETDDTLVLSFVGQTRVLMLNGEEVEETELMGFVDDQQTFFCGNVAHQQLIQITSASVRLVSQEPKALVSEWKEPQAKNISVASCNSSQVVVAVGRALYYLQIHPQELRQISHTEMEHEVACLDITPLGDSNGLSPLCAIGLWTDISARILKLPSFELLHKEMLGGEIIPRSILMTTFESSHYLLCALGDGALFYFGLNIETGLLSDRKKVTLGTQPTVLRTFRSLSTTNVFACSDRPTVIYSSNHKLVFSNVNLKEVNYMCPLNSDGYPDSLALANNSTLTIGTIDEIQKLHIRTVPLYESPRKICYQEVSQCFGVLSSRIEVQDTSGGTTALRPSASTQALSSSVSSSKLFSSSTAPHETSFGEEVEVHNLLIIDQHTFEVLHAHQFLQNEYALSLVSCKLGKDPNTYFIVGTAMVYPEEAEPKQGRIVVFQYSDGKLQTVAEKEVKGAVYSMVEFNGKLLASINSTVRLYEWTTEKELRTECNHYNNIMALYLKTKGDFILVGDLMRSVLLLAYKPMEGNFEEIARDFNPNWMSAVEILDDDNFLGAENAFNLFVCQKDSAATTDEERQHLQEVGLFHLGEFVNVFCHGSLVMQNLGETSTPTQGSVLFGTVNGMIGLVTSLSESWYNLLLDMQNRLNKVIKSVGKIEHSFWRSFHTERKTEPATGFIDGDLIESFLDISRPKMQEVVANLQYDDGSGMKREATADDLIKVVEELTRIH
Sequence of Helios (Q9UKS7 whole entry): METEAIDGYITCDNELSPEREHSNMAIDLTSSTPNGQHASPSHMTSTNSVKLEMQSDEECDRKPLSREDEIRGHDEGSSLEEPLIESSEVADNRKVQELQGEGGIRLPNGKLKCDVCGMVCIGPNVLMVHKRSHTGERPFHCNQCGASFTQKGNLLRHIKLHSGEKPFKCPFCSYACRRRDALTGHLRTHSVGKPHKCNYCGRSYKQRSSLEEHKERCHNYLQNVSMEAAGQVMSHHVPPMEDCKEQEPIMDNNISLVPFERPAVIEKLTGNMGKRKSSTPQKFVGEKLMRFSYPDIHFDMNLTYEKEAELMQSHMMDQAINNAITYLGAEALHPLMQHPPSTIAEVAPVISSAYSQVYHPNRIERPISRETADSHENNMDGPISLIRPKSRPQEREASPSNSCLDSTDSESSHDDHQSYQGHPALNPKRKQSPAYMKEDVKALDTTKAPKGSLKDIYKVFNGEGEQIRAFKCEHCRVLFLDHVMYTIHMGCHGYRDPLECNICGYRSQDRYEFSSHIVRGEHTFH
Sequence of Helios (Q96SW2 whole entry): as the sequence (Q96SW2 whole entry) above
Sequence of Helios (Q16531 whole entry partner): as the sequence (Q16531 whole entry partner) above

Structure (SMILES)	DC50 (Ikaros)	DC50 (Helios)
CC(=O)N(C)c1nc(-c2ccc3c(c2)CN(C2CCC(=O)NC2=O)C3=O)cc2ccccc12 (stereo not drawn) [Example 52, N-{3-[2-(2,6-Dioxopiperidin-3-yl)-1-oxo-2,3-dihydro-1H-isoindol-5-yl]isoquinolin-1-yl}-N-methylacetamide]	> 20000 nM	210 nM
O=C1CCC(N2Cc3cc(-c4nccc5cccnc45)ccc3C2=O)C(=O)N1 (stereo not drawn) [Example 64, 3-[5-(1,7-naphthyridin-8-yl)-1-oxo-2,3-dihydro-1H-isoindol-2-yl]piperidine-2,6-dione]	> 20000 nM	> 20000 nM
COc1cc(C)cc(-c2ccc3c(c2)CN(C2CCC(=O)NC2=O)C3=O)n1 (stereo not drawn) [Example 146, 3-(5-(6-methoxy-4-methylpyridin-2-yl)-1-oxoisoindolin-2-yl)piperidine-2,6-dione]	≥ 20000 nM	190 nM
COc1nc(-c2ccc3c(c2)CN(C2CCC(=O)NC2=O)C3=O)cc2ccccc12 (stereo not drawn) [Example 156, 3-[5-(1-Methoxyisoquinolin-3-yl)-1-oxo-2,3-dihydro-1H-isoindol-2-yl]piperidine-2,6-dione]	≥ 20000 nM	500 nM
O=C1CCC(N2Cc3cc(-c4ncnc5c4oc4ccccc45)ccc3C2=O)C(=O)N1 (stereo not drawn) [Example 3, 3-(5-{8-oxa-3,5-diazatricyclo[7.4.0.0^2,7]trideca-1(9),2,4,6,10,12-hexaen-6-yl}-1-oxo-2,3-dihydro-1H-isoindol-2-yl)piperidine-2,6-dione]	> 20000 nM	36 nM
Nc1nc(-c2ccc3c(c2)CN(C2CCC(=O)NC2=O)C3=O)nc2nc[nH]c12 (stereo not drawn) [Example 44, 3-[5-(6-amino-7H-purin-2-yl)-1-oxo-2,3-dihydro-1H-isoindol-2-yl]piperidine-2,6-dione]	> 20000 nM	98 nM
O=C1CCC(N2Cc3cc(-c4nccc(-c5ccccn5)n4)ccc3C2=O)C(=O)N1 (stereo not drawn) [Example 75, 3-(1-oxo-5-(4-(pyridin-2-yl)pyrimidin-2-yl)isoindolin-2-yl)piperidine-2,6-dione]	> 20000 nM	1200 nM
N#Cc1cc(C2CC2)c(-c2ccc3c(c2)CN(C2CCC(=O)NC2=O)C3=O)nc1N (stereo not drawn) [Example 183, 2-amino-5-cyclopropyl-6-(2-(2,6-dioxopiperidin-3-yl)-1-oxoisoindolin-5-yl) nicotinonitrile]	≥ 10000 nM	50 nM
O=C1CCC(N2Cc3cc(-c4nccc5[nH]ccc45)ccc3C2=O)C(=O)N1 (stereo not drawn) [Example 160, 3-(1-oxo-5-(1H-pyrrolo[3,2-c]pyridin-4-yl)isoindolin-2-yl)piperidine-2,6-dione]	≥ 20000 nM	70 nM
Cc1cc(-c2ccc3c(c2)CN(C2CCC(=O)NC2=O)C3=O)nc2ccccc12 (stereo not drawn) [Example 24, 3-[5-(4-methylquinolin-2-yl)-1-oxo-2,3-dihydro-1H-isoindol-2-yl]piperidine-2,6-dione]	> 20000 nM	9 nM
N#Cc1ccnnc1-c1ccc2c(c1)CN(C1CCC(=O)NC1=O)C2=O (stereo not drawn) [Example 76, 3-(2-(2,6-dioxopiperidin-3-yl)-1-oxoisoindolin-5-yl)pyridazine-4-carbonitrile]	> 20000 nM	> 20000 nM
O=C1CCC(N2Cc3cc(-c4ccc5[nH]cnc5n4)ccc3C2=O)C(=O)N1 (stereo not drawn) [Example 139, 3-(5-(1H-imidazo[4,5-b]pyridin-5-yl)-1-oxoisoindolin-2-yl)piperidine-2,6-dione]	≥ 20000 nM	4160 nM
COc1cc(N)nc(-c2ccc3c(c2)CN(C2CCC(=O)NC2=O)C3=O)c1 (stereo not drawn) [Example 164, 3-(5-(6-amino-4-methoxypyridin-2-yl)-1-oxoisoindolin-2-yl)piperidine-2,6-dione]	≥ 20000 nM	40 nM
O=C1CCC(N2Cc3cc(-c4ncc5cc(F)ccc5n4)ccc3C2=O)C(=O)N1 (stereo not drawn) [Example 35, 3-[5-(6-fluoroquinazolin-2-yl)-1-oxo-2,3-dihydro-1H-isoindol-2-yl]piperidine-2,6-dione]	> 20000 nM	53 nM
O=C1CCC(N2Cc3cc(-c4cc(O)c5ccccc5n4)ccc3C2=O)C(=O)N1 (stereo not drawn) [Example 37, 3-[5-(4-hydroxyquinolin-2-yl)-1-oxo-2,3-dihydro-1H-isoindol-2-yl]piperidine-2,6-dione]	> 20000 nM	2400 nM
COc1ccc2c(-c3ccc4c(c3)CN(C3CCC(=O)NC3=O)C4=O)nccc2c1 (stereo not drawn) [Example 17, 3-[5-(6-methoxyisoquinolin-1-yl)-1-oxo-2,3-dihydro-1H-isoindol-2-yl]piperidine-2,6-dione]	96 nM	14 nM
O=C1CCC(N2Cc3cc(-c4cnc5cc(F)ccc5n4)ccc3C2=O)C(=O)N1 (stereo not drawn) [Example 26, 3-[5-(6-fluoroquinoxalin-2-yl)-1-oxo-2,3-dihydro-1H-isoindol-2-yl]piperidine-2,6-dione]	> 20000 nM	98 nM
O=C1CCC(N2Cc3cc(-c4nc5ccccc5nc4C4CC4)ccc3C2=O)C(=O)N1 (stereo not drawn) [Example 97, 3-(5-(3-cyclopropylquinoxalin-2-yl)-1-oxoisoindolin-2-yl)piperidine-2,6-dione]	–	90 nM
COc1c(C)cc(-c2ccc3c(c2)CN(C2CCC(=O)NC2=O)C3=O)nc1N (stereo not drawn) [Example 153, 3-(5-(6-amino-5-methoxy-4-methylpyridin-2-yl)-1-oxoisoindolin-2-yl)piperidine-2,6-dione]	≥ 10000 nM	70 nM
CCC(C)Nc1nc2ccc(-c3ccc4c(c3)CN(C3CCC(=O)NC3=O)C4=O)nc2s1 (stereo not drawn) [Example 10, 3-(5-{2-[(butan-2-yl)amino]-[1,3]thiazolo[5,4-b]pyridin-5-yl}-1-oxo-2,3-dihydro-1H-isoindol-2-yl)piperidine-2,6-dione]	> 20000 nM	100 nM
N#Cc1cc2ccccc2c(-c2ccc3c(c2)CN(C2CCC(=O)NC2=O)C3=O)n1 (stereo not drawn) [Example 59, 1-[2-(2,6-dioxopiperidin-3-yl)-1-oxo-2,3-dihydro-1H-isoindol-5-yl]isoquinoline-3-carbonitrile]	–	24 nM
CNc1nc(-c2ccc3c(c2)CN(C2CCC(=O)NC2=O)C3=O)cc2c1ncn2C (stereo not drawn) [Example 61, 3-{5-[1-methyl-4-(methylamino)-1H-imidazo[4,5-c]pyridin-6-yl]-1-oxo-2,3-dihydro-1H-isoindol-2-yl}piperidine-2,6-dione]	–	7 nM
CCCc1cc(-c2ccc3c(c2)CN(C2CCC(=O)NC2=O)C3=O)nc(N)c1C#N (stereo not drawn) [Example 172, 2-amino-6-(2-(2,6-dioxopiperidin-3-yl)-1-oxoisoindolin-5-yl)-4-propylnicotinonitrile]	–	30 nM
N#Cc1c(C(F)F)cc(N)nc1-c1ccc2c(c1)CN(C1CCC(=O)NC1=O)C2=O (stereo not drawn) [Example 174, 6-amino-4-(difluoromethyl)-2-(2-(2,6-dioxopiperidin-3-yl)-1-oxoisoindolin-5-yl) nicotinonitrile]	–	350 nM
CC(C)(C)Cn1ccc(=O)c2c(N)nc(-c3ccc4c(c3)CN(C3CCC(=O)NC3=O)C4=O)cc21 (stereo not drawn) [Example 46, 3-{5-[5-Amino-1-(2,2-dimethylpropyl)-4-oxo-1,4-dihydro-1,6-naphthyridin-7-yl]-1-oxo-2,3-dihydro-1H-isoindol-2-yl}piperidine-2,6-dione]	–	3 nM
N#Cc1c(C(F)(F)F)cc(-c2ccc3c(c2)CN(C2CCC(=O)NC2=O)C3=O)nc1N (stereo not drawn) [Example 177, 2-amino-6-(2-(2,6-dioxopiperidin-3-yl)-1-oxoisoindolin-5-yl)-4-(trifluoromethyl)nicotine-nitrile]	–	40 nM
